PubChem BioAssay AID330 (DTP/NCI, 2004)
Values joined by “and” are separate entries in the source; they are usually repeats but may differ in a detail not shown here. Equal values may be shown once. Toxic doses and inconclusive results are not listed. Peptide text beside a SMILES is read from it. * marks the point of attachment. Boc = CC(C)(C)OC(=O)*; NHNH2 = NN*

System: P388 leukemia ip, CD2F1 mice, survival T/C
Experiment: NCI In Vivo Anticancer Drug Screen. Data for tumor model P388 Leukemia (intraperitoneal) in CD2F1 (CDF1) mice
Conditions: endpoint: median survival time, higher = longer survival
Procedure, shortened: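 Mice carrying the transplanted tumor received test compound or vehicle. Survival was recorded in each group, and the value is the treated-group measurement divided by that of the vehicle-treated control group.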

[1] = dose: 50.0 mg/kg/injection, schedule: Q01DX009 (ip), vehicle: saline with Tween-80
[2] = dose: 200.0 mg/kg/injection, schedule: Q01DX009 (ip), vehicle: saline
[3] = dose: 50.0 mg/kg/injection, schedule: Q01DX009 (ip), vehicle: saline
[4] = dose: 100.0 mg/kg/injection, schedule: Q01DX009 (ip), vehicle: saline

CC(C)CNc1ccc(S(=O)(=O)c2ccc(NCC(C)C)c([N+](=O)[O-])c2)cc1[N+](=O)[O-]
T/C (dose: 6.25 mg/kg/injection, schedule: Q01DX009 (ip), vehicle: saline with Tween-80): 98 % of control | T/C (dose: 12.5 mg/kg/injection, schedule: Q01DX009 (ip), vehicle: saline with Tween-80): 92 % of control | T/C (dose: 25.0 mg/kg/injection, schedule: Q01DX009 (ip), vehicle: saline with Tween-80): 87 % of control | T/C [1]: 93 % of control

C=C1C(=O)OC2C/C(C=O)=C/CC/C(C)=C/C(O)C12 (stereo unspecified)
T/C (dose: 9.0 mg/kg/injection, schedule: Q01DX005 (ip), vehicle: Klucel (hydroxypropylcellulose) (HPC)): 96 % of control | T/C (dose: 18.0 mg/kg/injection, schedule: Q01DX005 (ip), vehicle: Klucel (hydroxypropylcellulose) (HPC)): 99 % of control | T/C (dose: 36.0 mg/kg/injection, schedule: Q01DX005 (ip), vehicle: Klucel (hydroxypropylcellulose) (HPC)): 105 % of control | T/C (dose: 72.0 mg/kg/injection, schedule: Q01DX005 (ip), vehicle: Klucel (hydroxypropylcellulose) (HPC)): 106 % of control

O=S(=O)(O/C(=C(\OS(=O)(=O)C(F)(F)C(F)(F)C(F)(F)C(F)(F)F)c1ccccc1)c1ccccc1)C(F)(F)C(F)(F)C(F)(F)C(F)(F)F
T/C (dose: 60.0 mg/kg/injection, schedule: Q01DX005 (ip), vehicle: saline with Tween-80): 99 % of control | T/C (dose: 120.0 mg/kg/injection, schedule: Q01DX005 (ip), vehicle: saline with Tween-80): 107 % of control | T/C (dose: 240.0 mg/kg/injection, schedule: Q01DX005 (ip), vehicle: saline with Tween-80): 99 % of control

COC1=C(N2CC2)C(=O)C(OC)=C(N2CC2)C1=O
T/C (dose: 4.0 mg/kg/injection, schedule: Q04DX003 (ip), vehicle: saline with Tween-80): 159 % of control

CSc1nc(SC)c2cnn(Cc3ccccc3)c2n1
T/C (dose: 50.0 mg/kg/injection, schedule: Q01DX005 (ip), vehicle: saline with Tween-80): 96 % of control | T/C (dose: 100.0 mg/kg/injection, schedule: Q01DX005 (ip), vehicle: saline with Tween-80): 95 % of control | T/C (dose: 200.0 mg/kg/injection, schedule: Q01DX005 (ip), vehicle: saline with Tween-80): 93 % of control

COc1ncnc2c1ccn2C1OC(CO)C(O)C1O (stereo unspecified)
T/C (dose: 6.25 mg/kg/injection, schedule: Q01DX005 (ip), vehicle: Klucel (hydroxypropylcellulose) (HPC)): 107 % of control | T/C (dose: 12.5 mg/kg/injection, schedule: Q01DX005 (ip), vehicle: Klucel (hydroxypropylcellulose) (HPC)): 89 % of control

O=C(O)c1cncc(C(=O)NCO)c1
T/C (dose: 12.5 mg/kg/injection, schedule: Q01DX009 (ip), vehicle: saline): 101 % of control | T/C (dose: 25.0 mg/kg/injection, schedule: Q01DX009 (ip), vehicle: saline): 101 % of control and 91 % of control | T/C [2]: 99 % of control and 103 % of control and 91 % of control

CC1C(C#N)C(=O)NC(=O)C1C#N (stereo unspecified)
T/C [3]: 99 % of control | T/C [4]: 100 % of control | T/C [2]: 100 % of control

COc1ccc(CCCNC(=O)Cc2ccccc2)cc1OC
T/C [1]: 92 % of control | T/C (dose: 100.0 mg/kg/injection, schedule: Q01DX009 (ip), vehicle: saline with Tween-80): 92 % of control | T/C (dose: 200.0 mg/kg/injection, schedule: Q01DX009 (ip), vehicle: saline with Tween-80): 91 % of control

CC1(C)C(=O)C(/C=C\c2ccccc2[N+](=O)[O-])Cc2ccccc21 (stereo unspecified)
T/C (dose: 100.0 mg/kg/injection, schedule: Q01DX001 (ip), vehicle: Klucel (hydroxypropylcellulose) (HPC)): 100 % of control | T/C (dose: 200.0 mg/kg/injection, schedule: Q01DX001 (ip), vehicle: Klucel (hydroxypropylcellulose) (HPC)): 99 % of control | T/C (dose: 400.0 mg/kg/injection, schedule: Q01DX001 (ip), vehicle: Klucel (hydroxypropylcellulose) (HPC)): 100 % of control

CC(C)(C)OC(=O)NC(Cc1c[nH]c2ccccc12)C(=O)NC(Cc1c[nH]c2ccccc12)C(=O)NN (stereo not drawn) (Boc-Trp-Trp-NHNH2; configuration not given here)
T/C (dose: 12.5 mg/kg/injection, schedule: Q01DX009 (ip), vehicle: other): 94 % of control | T/C (dose: 25.0 mg/kg/injection, schedule: Q01DX009 (ip), vehicle: other): 94 % of control | T/C (dose: 50.0 mg/kg/injection, schedule: Q01DX009 (ip), vehicle: other): 91 % of control | T/C (dose: 100.0 mg/kg/injection, schedule: Q01DX009 (ip), vehicle: other): 91 % of control | T/C (dose: 200.0 mg/kg/injection, schedule: Q01DX009 (ip), vehicle: other): 107 % of control

CN(C)[C@@H]1C(=O)C(C(N)=O)=C(O)[C@@]2(O)C(=O)C3=C(O)c4c(O)cccc4C[C@H]3C[C@@H]12
T/C (dose: 7.5 mg/kg/injection, schedule: Q01DX010 (ip), vehicle: saline): 115 % of control | T/C (dose: 15.0 mg/kg/injection, schedule: Q01DX010 (ip), vehicle: saline): 120 % of control

CCCCCCCCC[N+]1([O-])CCOCC1
T/C [3]: 100 % of control | T/C [4]: 97 % of control | T/C [2]: 88 % of control

CC1CCC(C)(C(O)c2ccc(C(O)C3(C)CCC(C)C3(C)C)cc2)C1(C)C (stereo unspecified)
T/C [3]: 86 % of control | T/C (dose: 50.0 mg/kg/injection, schedule: Q01DX009 (ip), vehicle: suspension in saline): 92 % of control | T/C (dose: 100.0 mg/kg/injection, schedule: Q01DX009 (ip), vehicle: suspension in saline): 91 % of control | T/C [2]: 89 % of control

NC(N)=NCC(NS(=O)(=O)c1ccccc1)C(=O)O (stereo unspecified)
T/C (dose: 50.0 mg/kg/injection, schedule: Q01DX009 (ip), vehicle: Klucel (hydroxypropylcellulose) (HPC)): 111 % of control | T/C (dose: 100.0 mg/kg/injection, schedule: Q01DX009 (ip), vehicle: Klucel (hydroxypropylcellulose) (HPC)): 111 % of control | T/C (dose: 200.0 mg/kg/injection, schedule: Q01DX009 (ip), vehicle: Klucel (hydroxypropylcellulose) (HPC)): 104 % of control
